The record followed here is PMC5859971 (Genes & Development, 2018).

For assay [1], the target named is T1, wild-type mini-SF3b complex (4-protein SF3b complex) (Homo sapiens, UniProt O75533+Q7RTV0).
T1 construct: SF3B1 was limited to the HEAT repeat domain from residues 454–1304 and cloned in-frame with an N-terminal Flag tag; Truncated SF3B1 and full-length SF3B3, PHF5A, and SF3B5 were synthesized; made in house; host or cells: SF21 insect cells (baculovirus, pFastBac1)
In words: Scintillation proximity assay (SPA) competition with 3H-labeled pladienolide probe. It is filed as binding. The conditions noted are these: competition with 10 nM 3H-labeled pladienolide probe, 25 nM protein; read-out: SPA IC50. The protocol: (§1) To further validate the pose of the compound, we analyzed the activity of several related chemical probes using the SPA with the purified protein complex ([Teng et al. 2017]). The SPA is formatted as a competition assay in which the purified protein complex is captured on a bead containing scintillant, incubated with test compounds over a dose response, and then competed off with a fixed concentration of ^3H-Plad compound. IC50 curves are then measured from the resulting light emitted from the bead (Table 1; Supplemental Fig. S4). In addition, we tested the probes in viability assays in two engineered cell lines: HCT116-PHF5A^WT and the sensitization line HCT116-PHF5A^R38C (Table 1; Supplemental Fig. S5). This facilitates profiling of chemical probe activity in the PHF5A background (wild type and mutant). The relative expression levels were further confirmed by Western blot analysis (Supplemental Fig. S5).
Batch immobilization of the anti-Flag antibody (Sigma) to the anti-mouse PVT SPA scintillation beads (PerkinElmer) was prepared as follows. For every 1.5 mg of beads, 10 µg of antibody was prepared in 150 µL of PBS. The antibody–bead mixture was incubated for 30 min at room temperature and centrifuged at 18,000g for 5 min. One-hundred-fifty microliters of PBS was used to resuspend every 1.5 mg of antibody–bead mixture. The aforementioned mini-SF3b complex was tested for ^3H-labeled pladienolide probe binding ([Kotake et al. 2007]). One-hundred microliters of binding reactions was prepared with […] of bead slurry and 0 or 50 nM protein in buffer (20 mM HEPES at pH 8, 200 mM KCl, 5% glycerol). The mixture was incubated for 30 min, and varying concentrations of ^3H-labeled pladienolide probe were added. The mixture was incubated for 30 min, and luminescence signals were read using a MicroBeta2 plate counter (PerkinElmer). Compound competition studies were performed with the wild-type mini-SF3b complex. One-hundred microliters of binding reactions was prepared with 50 µL of bead slurry, 25 nM protein in buffer, and compounds at varying concentrations. After 30 min of preincubation, 10 nM ^3H-labeled pladienolide probe was added. The reactions were incubated for 30 min, and luminescence signals were read.
The Scintillation proximity assay (SPA) competition assay with 10 nM 3H tracer for different Pladienolide analogs binding to the 4-protein SF3b complex. Error bars represent STD for 2 or more measurements. Red = E7107, Orange = PladD, Purple = PladF, Green = compound 2, red = compound 3, gray = compound 4, black = compound 5, blue = compound 6. […]

The test system of another assay is HCT116-PHF5A^WT. In words: CellTiter-Glo viability assay, HCT116-PHF5A^WT. The conditions noted are these: Homo sapiens; 72 h, CellTiter-Glo; read-out: HCT116-PHF5A^WT GI50. It is filed as cell-based, human. The procedure: as §1
(§2) Parental HCT116 cells were obtained from American Type Culture Collection and cultured in RPMI 1640 medium supplemented with 10% fetal bovine serum. PHF5A R38C was generated using the Agilent QuikChange II kit and was cloned into pLenti6.3/V5 as described ([Teng et al. 2017]). The verified clone was used for lentivirus production using X293T cells. Parental HCT116 cells were infected with virus and selected with blasticidin S at 10 µg mL^−1 for 1 wk. Engineered cell lines were subsequently maintained in the absence of antibiotic. Transgene expression was confirmed by Western blot analysis (Supplemental Fig. S4). For Western blot analysis, α-PHF5A rabbit polyclonal antibody (Protein Tech, 15554-1-AP) was used at 1:1000 dilution in LI-COR buffer, and anti-rabbit secondary antibody (LI-COR) was used at 1:5000 dilution. The Western blot was imaged using an Odyssey V3.0 imager (LI-COR). For CellTiter-Glo analysis of the wild-type and PHF5A^R38C cell lines, 500 cells were seeded in each well of a 384-well plate 1 d before compound addition. Dose response was measured in 11-point serial dilutions with a top dose of 10 µM. The percentage of DMSO was controlled throughout, and a DMSO-only control was included. Seventy-two hours after dosing, CellTiter-Glo reagent was added, incubated, and assayed on an EnVision multilabel reader (PerkinElmer). Luminescence values from each treatment were normalized to the average value of the respective DMSO control. The dose response curve plots were generated in GraphPad Prism, and GI50 values were calculated from nonlinear regression analysis. GI50 values for the wild-type and R38C mutant cell lines were plotted in Spotfire.

A further assay relates to HCT116-PHF5A^R38C. In words: CellTiter-Glo viability assay, HCT116-PHF5A^R38C. Format: cell-based, human. The protocol: as §1, §2

T1 sequence (Q7RTV0 whole entry, the tested form may be a part): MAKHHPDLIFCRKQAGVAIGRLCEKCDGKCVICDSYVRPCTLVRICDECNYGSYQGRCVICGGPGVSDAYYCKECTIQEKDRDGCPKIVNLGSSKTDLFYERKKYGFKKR
T1 sequence (Q15393 whole entry, further chain, the tested form may be a part): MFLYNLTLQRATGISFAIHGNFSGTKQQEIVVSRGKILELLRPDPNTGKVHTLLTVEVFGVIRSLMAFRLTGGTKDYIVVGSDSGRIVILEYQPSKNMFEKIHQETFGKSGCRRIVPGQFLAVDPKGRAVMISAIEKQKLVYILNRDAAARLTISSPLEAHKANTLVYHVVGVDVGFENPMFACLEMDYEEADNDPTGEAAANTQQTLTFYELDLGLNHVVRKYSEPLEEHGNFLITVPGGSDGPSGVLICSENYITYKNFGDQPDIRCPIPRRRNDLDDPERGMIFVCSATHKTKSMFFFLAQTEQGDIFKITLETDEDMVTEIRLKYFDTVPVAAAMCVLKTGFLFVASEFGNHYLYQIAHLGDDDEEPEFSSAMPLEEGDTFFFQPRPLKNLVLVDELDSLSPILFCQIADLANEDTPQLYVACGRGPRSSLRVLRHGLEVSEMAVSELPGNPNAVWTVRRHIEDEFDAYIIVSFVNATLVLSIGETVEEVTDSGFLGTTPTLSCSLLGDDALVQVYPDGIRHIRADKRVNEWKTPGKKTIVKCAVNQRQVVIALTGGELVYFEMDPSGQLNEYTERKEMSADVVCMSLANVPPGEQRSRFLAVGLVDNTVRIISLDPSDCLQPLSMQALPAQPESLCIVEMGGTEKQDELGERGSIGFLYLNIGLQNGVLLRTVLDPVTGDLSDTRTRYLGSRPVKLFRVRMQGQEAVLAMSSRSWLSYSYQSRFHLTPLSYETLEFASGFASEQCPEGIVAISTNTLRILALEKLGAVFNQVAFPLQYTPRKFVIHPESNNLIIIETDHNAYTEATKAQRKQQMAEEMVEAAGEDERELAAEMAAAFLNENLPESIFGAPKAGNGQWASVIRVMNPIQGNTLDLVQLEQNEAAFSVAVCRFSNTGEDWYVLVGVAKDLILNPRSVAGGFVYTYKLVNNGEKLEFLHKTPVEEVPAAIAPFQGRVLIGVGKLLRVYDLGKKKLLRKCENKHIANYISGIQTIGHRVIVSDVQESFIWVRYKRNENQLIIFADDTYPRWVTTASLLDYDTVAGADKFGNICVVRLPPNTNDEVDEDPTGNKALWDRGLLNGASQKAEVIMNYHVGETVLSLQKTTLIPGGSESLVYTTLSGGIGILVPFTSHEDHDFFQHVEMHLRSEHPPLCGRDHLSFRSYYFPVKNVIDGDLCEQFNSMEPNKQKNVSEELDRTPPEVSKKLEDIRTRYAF
T1 sequence (O75533 454-1304): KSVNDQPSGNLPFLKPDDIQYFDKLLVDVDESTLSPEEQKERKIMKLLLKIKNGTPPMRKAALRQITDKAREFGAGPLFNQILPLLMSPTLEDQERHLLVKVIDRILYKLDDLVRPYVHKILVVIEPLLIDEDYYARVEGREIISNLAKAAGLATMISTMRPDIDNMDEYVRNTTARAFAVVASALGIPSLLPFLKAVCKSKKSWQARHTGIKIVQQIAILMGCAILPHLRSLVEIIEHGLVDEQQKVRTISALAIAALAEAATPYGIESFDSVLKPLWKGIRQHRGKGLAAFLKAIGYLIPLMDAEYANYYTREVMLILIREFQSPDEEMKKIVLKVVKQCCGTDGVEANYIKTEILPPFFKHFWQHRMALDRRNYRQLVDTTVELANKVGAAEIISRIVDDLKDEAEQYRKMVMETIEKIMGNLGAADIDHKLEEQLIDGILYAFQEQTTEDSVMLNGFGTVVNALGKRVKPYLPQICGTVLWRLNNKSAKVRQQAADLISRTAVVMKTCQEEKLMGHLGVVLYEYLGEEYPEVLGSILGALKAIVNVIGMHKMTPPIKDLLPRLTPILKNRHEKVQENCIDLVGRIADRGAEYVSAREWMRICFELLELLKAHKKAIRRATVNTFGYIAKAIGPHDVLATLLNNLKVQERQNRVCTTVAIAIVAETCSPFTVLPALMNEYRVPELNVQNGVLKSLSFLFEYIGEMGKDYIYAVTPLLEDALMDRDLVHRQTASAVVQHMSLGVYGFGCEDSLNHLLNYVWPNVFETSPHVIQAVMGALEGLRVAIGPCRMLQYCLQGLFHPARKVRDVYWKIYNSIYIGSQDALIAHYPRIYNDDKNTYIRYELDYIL
T1 sequence (Q9BWJ5 whole entry, further chain, the tested form may be a part): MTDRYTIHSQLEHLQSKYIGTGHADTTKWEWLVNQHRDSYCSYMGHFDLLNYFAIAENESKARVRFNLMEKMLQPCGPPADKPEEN

For the compound `CCC(O)C(C)C1OC1CC(C)(O)C=CC=C(C)C1OC(=O)CC(O)CCC(C)(O)C(OC(=O)N2CCN(C3CCCCCC3)CC2)C=CC1C` (centres unmarked) [Compound E7107], the half-maximal inhibitory concentration (IC50) in assay [1] is 67 nM. Also, the 50% growth inhibitory concentration (GI50) in the assay with HCT116-PHF5A^WT worked out at 2.3 nM; in the assay with HCT116-PHF5A^R38C (Homo sapiens, 72 h, CellTiter-Glo, read-out: HCT116-PHF5A^R38C GI50) it was 1.2 nM. The “sensitization (enhanced potency in PHF5A^R38C vs wild type)” value in the assay on HCT116-PHF5A^R38C (GI50 R38C vs wild type, n = 2) is “twofold”. Besides, the “PHF5A^R38C sensitization phenotype (words)” value in the assay with HCT116-PHF5A^R38C (R38C vs wild type) is given as “sensitization”.
